The source of these data is patent US6610677B2, “Pyrazole compounds useful as protein kinase inhibitors” (Vertex Pharmaceuticals Incorporated, priority 2000, dated 2003).

In series [1] the target is T1, GSK-3β (AA 1-420) (Homo sapiens, UniProt P49841).
T1 construct: GSK-3β (AA 1-420)
Description: Ki determination for the inhibition of GSK-3 (coupled enzyme system). Type of series: biochemical. Particulars: 20 μM ATP, 300 μM peptide, 20 nM GSK-3β, 30° C. The gist of the method: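 Ki values come from reaction rates over 10 min at 30 °C as a function of inhibitor concentration (12-point titration, 0.002–30 μM, 10 min preincubation). GSK-3β (AA 1-420, 20 nM) phosphorylated 300 μM primed peptide with 20 μM ATP; ADP formation followed by coupled NADH oxidation, pH 7.5.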

Series [2] addresses activated ERK2 (Homo sapiens, UniProt P28482). The series can be described thus: ERK inhibition assay (spectrophotometric coupled-enzyme assay). In kind it is biochemical. Conditions: 10 nM activated ERK2, 65 μM ATP, 200 μM erktide; read-out: Ki value for ERK-2. On the procedure: Compounds were assayed for the inhibition of ERK2 by a spectrophotometric coupled-enzyme assay (Fox et al (1998) Protein Sci 7, 2249). In this assay, a fixed concentration of activated ERK2 (10 nM) was incubated with various concentrations of the compound in DMSO (2.5%) for 10 min. at 30° C. in 0.1 M HEPES buffer, pH 7.5, containing 10 mM MgCl2, 2.5 mM phosphoenolpyruvate, 200 μM NADH, 150 μg/mL pyruvate kinase, 50 μg/mL lactate dehydrogenase, and 200 μM erktide peptide. The reaction was initiated by the addition of 65 μM ATP. The rate of decrease of absorbance at […] was monitored. The IC50 was evaluated from the rate data as a function of inhibitor concentration.

Series [3] addresses T2, Aurora-2 (Homo sapiens, UniProt O14965).
T2 sequence (O14965 1-403): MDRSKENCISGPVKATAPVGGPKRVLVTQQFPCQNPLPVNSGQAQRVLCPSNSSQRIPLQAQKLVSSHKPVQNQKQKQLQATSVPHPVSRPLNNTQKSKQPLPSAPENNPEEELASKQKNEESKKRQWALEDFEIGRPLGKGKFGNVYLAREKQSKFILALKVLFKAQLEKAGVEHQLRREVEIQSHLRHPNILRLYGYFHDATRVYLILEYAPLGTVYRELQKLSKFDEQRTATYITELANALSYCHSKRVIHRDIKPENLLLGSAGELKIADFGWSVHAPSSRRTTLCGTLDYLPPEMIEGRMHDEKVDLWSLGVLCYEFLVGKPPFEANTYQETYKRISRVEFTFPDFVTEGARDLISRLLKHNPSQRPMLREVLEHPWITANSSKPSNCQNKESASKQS
The series can be described thus: Ki determination for the inhibition of Aurora-2 (coupled enzyme assay). Type of series: biochemical. Particulars: 70 nM Aurora-2, peptide LRRASLG, 30° C. The gist of the method:
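Ki came from reaction rates plotted against inhibitor concentration, with rates taken as A340 decrease over 5 min at 30° C. Enzyme (70 nM final) was added after 10 min compound preincubation; stock buffer held […], 800 μM LRRASLG, PK/LDH coupling, pH 7.5.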

Series [4] has as its target T3, human Src kinase (Homo sapiens, UniProt P12931).
T3 construct: full length recombinant human Src kinase; purchased Upstate Biotechnology 14-117; host or cells: baculo viral cells (baculovirus expression system)
Description: SRC inhibition assay (radioactivity-based or spectrophotometric assay). Type of series: biochemical. Conditions: assay A or B not specified; read-out: Ki value on SRC. On the procedure: The compounds were evaluated as inhibitors of human Src kinase using either a radioactivity-based assay or spectrophotometric assay. The compounds were assayed as inhibitors of full length recombinant human Src kinase (from Upstate Biotechnology, cat. no. 14-117) expressed and purified from baculo viral cells. […] P-0275). […] In a typical assay, all the reaction components with the exception of ATP were pre-mixed and aliquoted into assay plate wells. Inhibitors dissolved in DMSO were added to the wells to give a final DMSO concentration of 2.5%. The assay plate was incubated at 30° C. for 10 min before initiating the reaction with ^33P-ATP. After 20 min of reaction, the reactions were quenched with 150 μl of 10% trichloroacetic acid (TCA) containing 20 mM Na3PO4. The quenched samples were then transferred to a 96-well filter plate (Whatman, UNI-Filter GF/F Glass Fiber Filter, cat no. 7700-3310) installed on a filter plate vacuum manifold. Filter plates were washed four times with 10% TCA containing 20 mM Na3PO4 and then 4 times with methanol. 200 μl of scintillation fluid was then added to each well. The plates were sealed and the amount of radioactivity associated with the filters was quantified on a TopCount scintillation counter. The radioactivity incorporated was plotted as a function of the inhibitor concentration. The data was fitted to a competitive inhibition kinetics model to get the Ki for the compound. The ADP produced from ATP by the human recombinant Src kinase-catalyzed phosphorylation of poly Glu-Tyr substrate was quanitified using a coupled enzyme assay (Fox et al (1998) Protein Sci 7, 2249). In this assay one molecule of NADH is oxidised to NAD for every molecule of ADP produced in the kinase reaction. The disappearance of NADH can be conveniently followed at 340 nm. […] In a typical assay, all the reaction components with the exception of ATP were pre-mixed and aliquoted into assay plate wells. Inhibitors dissolved in DMSO were added to the wells to give a final DMSO concentration of 2.5%. […] The absorbance change at 340 nm with time, the rate of the reaction, was monitored on a molecular devices plate reader. The data of rate as a function of the inhibitor concentration was fitted to compettive inhibition kinetics model to get the Ki for the compound.

Sequence of activated ERK2 (P28482 whole entry): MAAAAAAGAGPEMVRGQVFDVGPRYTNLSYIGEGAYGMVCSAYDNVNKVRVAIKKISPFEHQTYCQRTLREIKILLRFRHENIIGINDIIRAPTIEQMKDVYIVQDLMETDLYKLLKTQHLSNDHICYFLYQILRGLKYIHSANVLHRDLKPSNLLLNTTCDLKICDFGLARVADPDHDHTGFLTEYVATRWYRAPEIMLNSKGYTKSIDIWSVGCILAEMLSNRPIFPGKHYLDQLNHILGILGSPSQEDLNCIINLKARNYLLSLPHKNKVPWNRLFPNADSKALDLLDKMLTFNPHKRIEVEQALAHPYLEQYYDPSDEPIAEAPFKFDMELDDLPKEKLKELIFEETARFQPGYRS
T1 sequence (P49841 whole entry, the tested form may be a part): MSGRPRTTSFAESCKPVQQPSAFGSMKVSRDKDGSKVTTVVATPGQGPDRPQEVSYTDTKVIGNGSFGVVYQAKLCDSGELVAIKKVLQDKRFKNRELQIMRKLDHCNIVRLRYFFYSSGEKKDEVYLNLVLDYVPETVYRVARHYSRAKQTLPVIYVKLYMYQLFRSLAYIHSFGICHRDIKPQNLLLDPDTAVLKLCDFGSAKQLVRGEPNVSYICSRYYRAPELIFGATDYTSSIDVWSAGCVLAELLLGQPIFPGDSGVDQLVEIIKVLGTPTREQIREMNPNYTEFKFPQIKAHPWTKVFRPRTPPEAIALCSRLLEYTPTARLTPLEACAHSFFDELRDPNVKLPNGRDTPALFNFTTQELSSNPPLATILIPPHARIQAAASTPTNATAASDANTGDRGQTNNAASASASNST
T3 sequence (P12931 whole entry): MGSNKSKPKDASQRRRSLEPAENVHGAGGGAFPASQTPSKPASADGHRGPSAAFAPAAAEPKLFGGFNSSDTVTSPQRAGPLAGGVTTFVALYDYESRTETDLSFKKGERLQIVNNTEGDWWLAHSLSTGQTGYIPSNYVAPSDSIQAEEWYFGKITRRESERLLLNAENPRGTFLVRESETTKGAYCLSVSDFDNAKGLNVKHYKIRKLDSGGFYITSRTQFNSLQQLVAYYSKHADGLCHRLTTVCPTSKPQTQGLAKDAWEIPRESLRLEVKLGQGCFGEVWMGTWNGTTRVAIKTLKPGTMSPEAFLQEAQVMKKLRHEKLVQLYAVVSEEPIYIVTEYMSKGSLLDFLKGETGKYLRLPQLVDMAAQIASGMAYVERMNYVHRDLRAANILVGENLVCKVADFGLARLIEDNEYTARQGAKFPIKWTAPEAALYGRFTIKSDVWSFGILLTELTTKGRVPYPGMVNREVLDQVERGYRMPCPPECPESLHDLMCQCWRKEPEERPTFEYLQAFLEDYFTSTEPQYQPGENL

What is called Ki is a measure of affinity in units of concentration, obtained from inhibition or displacement. In general, melting point refers to the temperature of the solid-liquid transition. Molecule `c1ccc(-c2nc(Nc3cc(C4CC4)n[nH]3)c3ccccc3n2)cc1` [III-40, (5-Cyclopropyl-2H-pyrazol-3-yl)-(2-phenyl-quinazolin-4-yl)-amine] registered a melting point of 218 to 219 °C. The Ki in series [1] was < 100 nM. Further, the Ki in series [2] was in the range of 1000 to 12000 nM. Further, the Ki in series [3] was < 100 nM. The Ki in series [4] was < 100 nM.

For `OCC1CCN(c2nc(Nc3cc(C4CC4)n[nH]3)c3ccccc3n2)CC1` [III-120, (5-Cyclopropyl-2H-pyrazol-3-yl)-[2-(4-hydroxymethylpiperidin-1-yl)-quinazolin-4-yl]-amine], the melting point came to 142 °C. Also, the Ki in series [1] is < 100 nM. For the same molecule, the Ki in series [2] was < 1000 nM. For the same molecule, the Ki in series [3] was < 100 nM.
